Assay results reported in ChEMBL document CHEMBL3351875, “Synthesis of Deuterated Benzopyran Derivatives as Selective COX-2 Inhibitors with Improved Pharmacokinetic Properties” (ACS Med Chem Lett, 2014).

Experiments:
[1] = Apparent oral clearance in Sprague-Dawley rat at 2.5 mg/kg, po measured during 1 to 24 hrs by LC-MS method; assay type: ADME, organism-based; parameters: dose 2.5 mg/kg, route oral; details: Sprague-Dawley, in vivo
[2] = biological target: T1, Prostaglandin G/H synthase 2 (Homo sapiens, UniProt P35354); assay: Inhibition of human recombinant COX2 pre-incubated for 15 mins before fluorometric substrate addition by fluorescence based assay
T1 sequence (P35354 whole entry): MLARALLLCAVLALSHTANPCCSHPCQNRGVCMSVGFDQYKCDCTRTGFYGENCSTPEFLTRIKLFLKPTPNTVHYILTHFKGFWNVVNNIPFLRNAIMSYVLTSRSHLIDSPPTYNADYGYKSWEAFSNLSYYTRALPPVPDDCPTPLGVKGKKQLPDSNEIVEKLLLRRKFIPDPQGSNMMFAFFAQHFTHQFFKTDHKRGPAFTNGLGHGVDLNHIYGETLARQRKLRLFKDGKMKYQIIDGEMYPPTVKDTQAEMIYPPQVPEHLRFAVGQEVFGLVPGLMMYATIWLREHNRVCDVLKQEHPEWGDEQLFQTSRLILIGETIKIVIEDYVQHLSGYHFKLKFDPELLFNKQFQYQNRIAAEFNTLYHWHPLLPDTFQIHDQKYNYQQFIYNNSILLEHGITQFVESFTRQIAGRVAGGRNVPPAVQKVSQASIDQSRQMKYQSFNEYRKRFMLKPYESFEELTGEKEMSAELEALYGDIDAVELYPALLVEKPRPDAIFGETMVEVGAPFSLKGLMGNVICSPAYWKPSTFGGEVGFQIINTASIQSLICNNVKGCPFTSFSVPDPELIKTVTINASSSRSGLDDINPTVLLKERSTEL

[3] = AUC (0 to infinity) in Sprague-Dawley rat at 2.5 mg/kg, po measured during 1 to 24 hrs by LC-MS method; assay type: ADME, organism-based, Plasma; parameters: dose 2.5 mg/kg, route oral, time infinity; details: Sprague-Dawley, plasma
Rattus norvegicus [4] = assay: Half life in Sprague-Dawley rat at 2.5 mg/kg, po measured during 1 to 24 hrs by LC-MS method; assay type: ADME, organism-based; parameters: dose 2.5 mg/kg, route oral; details: in vivo
Rattus norvegicus [5] = assay: Tmax in Sprague-Dawley rat at 2.5 mg/kg, po measured during 1 to 24 hrs by LC-MS method; assay type: ADME, organism-based; parameters: dose 2.5 mg/kg, route oral; details: in vivo
[6] = Volume of distribution in Sprague-Dawley rat at 1 mg/kg, iv measured during 1 to 24 hrs by LC-MS method; assay type: ADME, organism-based; parameters: dose 1 mg/kg, route intravenous; details: in vivo
[7] = biological target: Prostaglandin G/H synthase 1 (Homo sapiens, UniProt P23219); assay: Inhibition of human recombinant COX1 pre-incubated for 15 mins before fluorometric substrate addition by fluorescence based assay
[8] = Cmax in Sprague-Dawley rat at 1 mg/kg, iv measured during 1 to 24 hrs by LC-MS method; assay type: ADME, organism-based; parameters: dose 1 mg/kg, route intravenous; details: in vivo
[9] = AUC (0 to infinity) in Sprague-Dawley rat at 1 mg/kg, iv measured during 1 to 24 hrs by LC-MS method; assay type: ADME, organism-based, Plasma; parameters: time infinity, dose 1 mg/kg, route intravenous; details: Sprague-Dawley, plasma
[10] = Oral bioavailability in Sprague-Dawley rat at 2.5 mg/kg measured during 1 to 24 hrs by LC-MS method; assay type: ADME, organism-based; details: Sprague-Dawley, in vivo
[11] = Cmax in Sprague-Dawley rat at 2.5 mg/kg, po measured during 1 to 24 hrs by LC-MS method; assay type: ADME, organism-based; parameters: dose 2.5 mg/kg, route oral; details: in vivo
Rattus norvegicus [12] = assay: Half life in Sprague-Dawley rat at 1 mg/kg, iv measured during 1 to 24 hrs by LC-MS method; assay type: ADME, organism-based; parameters: dose 1 mg/kg, route intravenous; details: in vivo
[13] = Apparent oral clearance in Sprague-Dawley rat at 1 mg/kg, iv measured during 1 to 24 hrs by LC-MS method; assay type: ADME, organism-based; parameters: dose 1 mg/kg, route oral; details: in vivo
Rattus norvegicus [14] = assay: Volume of distribution in Sprague-Dawley rat at 2.5 mg/kg, po measured during 1 to 24 hrs by LC-MS method; assay type: ADME, organism-based; parameters: dose 2.5 mg/kg, route oral; details: in vivo
[15] = Cmax in Sprague-Dawley rat at 5 mg/kg, iv measured during 1 to 24 hrs by LC-MS method; assay type: ADME, organism-based; parameters: dose 5 mg/kg, route intravenous; details: in vivo
Rattus norvegicus [16] = assay: Volume of distribution in Sprague-Dawley rat at 10 mg/kg, po measured during 1 to 24 hrs by LC-MS method; assay type: ADME, organism-based; parameters: dose 10 mg/kg, route oral; details: in vivo
Rattus norvegicus [17] = assay: Antiinflammatory activity in orally dosed Sprague-Dawley rat model of carrageenan-induced foot paw edema assessed as reduction in edema by plethysmometry; assay type: functional, organism-based
[18] = Apparent oral clearance in Sprague-Dawley rat at 5 mg/kg, iv measured during 1 to 24 hrs by LC-MS method; assay type: ADME, organism-based; parameters: dose 5 mg/kg, route oral; details: in vivo
[19] = Apparent oral clearance in Sprague-Dawley rat at 10 mg/kg, po measured during 1 to 24 hrs by LC-MS method; assay type: ADME, organism-based; parameters: dose 10 mg/kg, route oral; details: Sprague-Dawley, in vivo
Rattus norvegicus [20] = assay: Half life in Sprague-Dawley rat at 5 mg/kg, iv measured during 1 to 24 hrs by LC-MS method; assay type: ADME, organism-based; parameters: dose 5 mg/kg, route intravenous; details: in vivo
Rattus norvegicus [21] = assay: Antiinflammatory activity in orally dosed Sprague-Dawley rat model of carrageenan-induced air pouch inflammation assessed as reduction in PGE2 level by ELISA method; assay type: functional, organism-based
Rattus norvegicus [22] = assay: AUC (0 to infinity) in Sprague-Dawley rat at 10 mg/kg, po measured during 1 to 24 hrs by LC-MS method; assay type: ADME, organism-based, Plasma; parameters: time infinity, dose 10 mg/kg, route oral; details: in vivo
[23] = Volume of distribution in Sprague-Dawley rat at 5 mg/kg, iv measured during 1 to 24 hrs by LC-MS method; assay type: ADME, organism-based; parameters: dose 5 mg/kg, route intravenous; details: in vivo
[24] = Oral bioavailability in Sprague-Dawley rat at 10 mg/kg measured during 1 to 24 hrs by LC-MS method; assay type: ADME, organism-based; details: Sprague-Dawley, in vivo
Rattus norvegicus [25] = assay: Antinociceptive activity in orally dosed Sprague-Dawley rat model of carrageenan-induced foot paw hyperalgesia assessed as paw withdrawal latency; assay type: functional, organism-based
Rattus norvegicus [26] = assay: AUC (0 to infinity) in Sprague-Dawley rat at 5 mg/kg, iv measured during 1 to 24 hrs by LC-MS method; assay type: ADME, organism-based, Plasma; parameters: time infinity, dose 5 mg/kg, route intravenous; details: in vivo

Prostaglandin G/H synthase 1, sequence (P23219 whole entry): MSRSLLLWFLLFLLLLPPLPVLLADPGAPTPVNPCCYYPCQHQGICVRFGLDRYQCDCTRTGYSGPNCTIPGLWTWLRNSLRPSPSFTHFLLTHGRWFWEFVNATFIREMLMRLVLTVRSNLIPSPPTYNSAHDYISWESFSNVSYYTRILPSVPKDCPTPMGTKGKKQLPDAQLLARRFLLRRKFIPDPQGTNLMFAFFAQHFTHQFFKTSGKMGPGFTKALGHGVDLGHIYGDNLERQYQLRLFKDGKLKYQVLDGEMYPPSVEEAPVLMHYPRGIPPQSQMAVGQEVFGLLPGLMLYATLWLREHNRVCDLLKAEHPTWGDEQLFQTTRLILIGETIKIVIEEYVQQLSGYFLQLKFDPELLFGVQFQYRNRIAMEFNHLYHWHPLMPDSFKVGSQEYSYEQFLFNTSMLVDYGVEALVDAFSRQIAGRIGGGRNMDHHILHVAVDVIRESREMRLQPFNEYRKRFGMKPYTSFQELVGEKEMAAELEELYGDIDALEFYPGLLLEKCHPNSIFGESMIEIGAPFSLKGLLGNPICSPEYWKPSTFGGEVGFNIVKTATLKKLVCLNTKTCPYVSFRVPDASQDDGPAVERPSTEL

Cc1cc2c(c(C)c1Br)C=C(C(=O)O)C(C(F)(F)F)O2 (stereo not drawn)
CL/F [1]: 3.52 mL/min/kg | IC50 [2]: 0.19 µM | AUC(0-inf) [3]: 12500 ng·h/mL | t1/2 (Rattus norvegicus [4]): 3.53 h | Tmax (Rattus norvegicus [5]): 0.375 h | Vd [6]: 0.38 L/kg | IC50 [7]: > 100 µM | Cmax [8]: 16700 ng/mL | AUC(0-inf) [9]: 8840 ng·h/mL | bioavailability [10]: 56.7% | Cmax [11]: 5340 ng/mL | t1/2 (Rattus norvegicus [12]): 2.3 h | CL/F [13]: 1.98 mL/min/kg | Vd (Rattus norvegicus [14]): 1.13 L/kg

[2H]C([2H])([2H])c1cc(Cl)cc2c1O[C@H](C(F)(F)F)C(C(=O)O)=C2
IC50 [7]: > 100 µM

Cc1cc(Cl)c2c(c1)C=C(C(=O)O)C(C(F)(F)F)O2 (stereo not drawn)
IC50 [7]: > 100 µM

[2H]C([2H])([2H])c1cc2c(c(C([2H])([2H])[2H])c1Cl)C=C(C(=O)O)C(C(F)(F)F)O2 (stereo not drawn)
Cmax [15]: 38800 ng/mL | Vd (Rattus norvegicus [16]): 0.26 L/kg | EC50 (Rattus norvegicus [17]): 5.18 mg/kg | CL/F [18]: 1.32 mL/min/kg | CL/F [19]: 1.43 mL/min/kg | t1/2 (Rattus norvegicus [20]): 2.525 h | EC50 (Rattus norvegicus [21]): 0.47 mg/kg | AUC (Rattus norvegicus [22]): 118331.438 ng·h/mL | Vd [23]: 0.287 L/kg | bioavailability [24]: 92.8% | EC50 (Rattus norvegicus [25]): 2.77 mg/kg | AUC (Rattus norvegicus [26]): 63759.714 ng·h/mL
